Active and inactive are the calls of the source. The calls are words filed in the database; no cut-off is given here.
Tests used:
A549 = experiment: Cytotoxicity against human A549 cells after 48 hrs by SRB method; assay type: functional, cell-based; settings: A549, 48 h
[1] = Cytotoxicity against mouse NIH/3T3 cells after 48 hrs by SRB method; assay type: cell-based; settings: NIH3T3, 48 h
MCF7 = experiment: Cytotoxicity against human MCF7 cells after 48 hrs by SRB method; assay type: functional, cell-based; settings: MCF7, 48 h
DU-145 [2] = experiment: Cytotoxicity against human DU145 cells after 48 hrs by SRB method; assay type: functional, cell-based; settings: DU-145, 48 h
HeLa = experiment: Cytotoxicity against human HeLa cells after 48 hrs by SRB method; assay type: functional, cell-based
Mycobacterium sp. = experiment: Antimycobacterial activity against Mycobacterium sp.; assay type: functional, organism-based
DU-145 [3] = experiment: Cell cycle arrest in human DU145 cells assessed as accumulation at G1 phase at 10 uM after 24 hrs by RNase/propidium iodide staining-based flow cytometry (reference value: 82.57%); assay type: functional
DU-145 [4] = experiment: Cell cycle arrest in human DU145 cells assessed as accumulation at G1 phase at 5 uM after 24 hrs by RNase/propidium iodide staining-based flow cytometry (reference value: 82.57%); assay type: functional
DU-145 [5] = experiment: Cell cycle arrest in human DU145 cells assessed as accumulation at G1 phase at 50 uM after 24 hrs by RNase/propidium iodide staining-based flow cytometry (reference value: 82.57%); assay type: functional
DU-145 [6] = experiment: Reduction in NF-kappaB p65 phosphorylation in human DU145 cells at 5 to 25 uM after 24 hrs by Western blotting analysis; assay type: functional, cell-based
DU-145 [7] = experiment: Cell cycle arrest in human DU145 cells assessed as accumulation at G1 phase after 24 hrs by RNase/propidium iodide staining-based flow cytometry; assay type: functional
DU-145 [8] = experiment: Cell cycle arrest in human DU145 cells assessed as accumulation at G2/M phase at 25 uM after 24 hrs by RNase/propidium iodide staining-based flow cytometry (reference value: 13.7%); assay type: functional
DU-145 [9] = experiment: Cell cycle arrest in human DU145 cells assessed as accumulation at G2/M phase at 50 uM after 24 hrs by RNase/propidium iodide staining-based flow cytometry (reference value: 13.7%); assay type: functional
DU-145 [10] = experiment: Cell cycle arrest in human DU145 cells assessed as accumulation at G1 phase at 15 uM after 24 hrs by RNase/propidium iodide staining-based flow cytometry (reference value: 82.57%); assay type: functional
DU-145 [11] = experiment: Cell cycle arrest in human DU145 cells assessed as accumulation at S phase at 50 uM after 24 hrs by RNase/propidium iodide staining-based flow cytometry (reference value: 4.24%); assay type: functional
DU-145 [12] = experiment: Cell cycle arrest in human DU145 cells assessed as accumulation at S phase at 5 uM after 24 hrs by RNase/propidium iodide staining-based flow cytometry (reference value: 4.24%); assay type: functional
DU-145 [13] = experiment: Effect on NF-kappaB total expression in human DU145 cells at 5 to 25 uM after 24 hrs by Western blotting analysis; assay type: functional, cell-based
DU-145 [14] = experiment: Cell cycle arrest in human DU145 cells assessed as accumulation at G1 phase at 25 uM after 24 hrs by RNase/propidium iodide staining-based flow cytometry (reference value: 82.57%); assay type: functional
DU-145 [15] = experiment: Cell cycle arrest in human DU145 cells assessed as accumulation at S phase at 15 uM after 24 hrs by RNase/propidium iodide staining-based flow cytometry (reference value: 4.24%); assay type: functional
DU-145 [16] = experiment: Cell cycle arrest in human DU145 cells assessed as accumulation at S phase at 10 uM after 24 hrs by RNase/propidium iodide staining-based flow cytometry (reference value: 4.24%); assay type: functional
DU-145 [17] = experiment: Cell cycle arrest in human DU145 cells assessed as accumulation at S phase at 25 uM after 24 hrs by RNase/propidium iodide staining-based flow cytometry (reference value: 4.24%); assay type: functional
DU-145 [18] = experiment: Cell cycle arrest in human DU145 cells assessed as accumulation at G2/M phase at 5 uM after 24 hrs by RNase/propidium iodide staining-based flow cytometry (reference value: 13.7%); assay type: functional
DU-145 [19] = experiment: Cell cycle arrest in human DU145 cells assessed as accumulation at G2/M phase at 10 uM after 24 hrs by RNase/propidium iodide staining-based flow cytometry (reference value: 13.7%); assay type: functional
DU-145 [20] = experiment: Cell cycle arrest in human DU145 cells assessed as accumulation at G2/M phase at 15 uM after 24 hrs by RNase/propidium iodide staining-based flow cytometry (reference value: 13.7%); assay type: functional
DU-145 [21] = experiment: Cell cycle arrest in human DU145 cells assessed as accumulation at G2/M phase after 24 hrs by RNase/propidium iodide staining-based flow cytometry; assay type: functional

Structure (SMILES)	IC50 (A549)	IC50 [1]	IC50 (MCF7)	IC50 (DU-145 [2])	IC50 (HeLa)	Activity (Mycobacterium sp.)	further results
c1ccc(Oc2ccc(-c3nc4ccccc4c4c3[nH]c3ccccc34)cc2)cc1	13.2 µM	> 200 µM	49.6 µM	54 µM	42.8 µM	inactive	
C=CCOc1ccc(-c2nc3ccccc3c3c2[nH]c2ccccc23)cc1	6.22 µM	> 200 µM	11.9 µM	23.6 µM	27.5 µM	inactive	
c1ccc2nc(-c3nc4ccccc4c4c3[nH]c3ccccc34)ccc2c1	68.4 µM	> 200 µM	52.6 µM	41.5 µM	69.9 µM	inactive	
Cc1cn([C@H]2C[C@H](N=[N+]=[N-])[C@@H](CO)O2)c(=O)[nH]c1=O [ZIDOVUDINE]	16.2 µM	> 200 µM	35 µM	34.5 µM	65.5 µM	inactive	
c1csc(-c2ccc(-c3nc4ccccc4c4c3[nH]c3ccccc34)s2)c1	3.03 µM	89.5 µM	10.7 µM	0.52 µM	6.59 µM	inactive	Activity (DU-145 [3]): 86.17%; Activity (DU-145 [4]): 84.55%; Activity (DU-145 [5]): 97.58%; Activity (DU-145 [6]): Active; Activity (DU-145 [7]): Dose-dependent effect; Activity (DU-145 [8]): 7.89%; Activity (DU-145 [9]): 1.89%; Activity (DU-145 [10]): 87.81%; Activity (DU-145 [11]): 0.63%; Activity (DU-145 [12]): 3.61%; Activity (DU-145 [13]): inactive; Activity (DU-145 [14]): 89.28%; Activity (DU-145 [15]): 2.97%; Activity (DU-145 [16]): 3.79%; Activity (DU-145 [17]): 2.83%; Activity (DU-145 [18]): 12.38%; Activity (DU-145 [19]): 10.74%; Activity (DU-145 [20]): 9.6%
COc1ccc(-c2nc3ccccc3c3c2[nH]c2ccccc23)cc1	23.8 µM	114 µM	27.8 µM	62 µM	36.1 µM	inactive	
FC(F)(F)c1ccc(-c2nc3ccccc3c3c2[nH]c2ccccc23)cc1	3.71 µM	110 µM	5.07 µM	4.19 µM	20.8 µM	inactive	
COc1cccc2c1C(=O)c1c(O)c3c(c(O)c1C2=O)C[C@@](O)(C(=O)CO)C[C@@H]3O[C@H]1C[C@H](N)[C@H](O)[C@H](C)O1 [DOXORUBICIN]	1.11 µM	5.91 µM	2.31 µM	3.11 µM	1.43 µM		
CCc1ccc(-c2nc3ccccc3c3c2[nH]c2ccccc23)cc1	9.33 µM	200 µM	9.84 µM	46.2 µM	19 µM	inactive	
CC(C)c1nc2ccccc2c2c1[nH]c1ccccc12	18.1 µM	> 200 µM	20.2 µM	43.9 µM	18.2 µM	inactive	
Brc1ccc(-c2nc3ccccc3c3c2[nH]c2ccccc23)cc1	17.1 µM	> 200 µM	23.4 µM	18.6 µM	49.3 µM	inactive	
c1ccc(COc2ccc(-c3nc4ccccc4c4c3[nH]c3ccccc34)cc2)cc1	29.9 µM	> 200 µM	58.9 µM	70 µM	67.9 µM	inactive	
Cc1cn([C@H]2C[C@H](N=[N+]=[N-])[C@@H](c3nc4ccccc4c4c3[nH]c3ccccc34)O2)c(=O)[nH]c1=O	6.2 µM	63.3 µM	4.78 µM	10.1 µM	17.3 µM	inactive	Activity (DU-145 [3]): 77.6%; Activity (DU-145 [4]): 80.75%; Activity (DU-145 [5]): 52.07%; Activity (DU-145 [6]): Active; Activity (DU-145 [8]): 28.22%; Activity (DU-145 [9]): 39.57%; Activity (DU-145 [10]): 74.76%; Activity (DU-145 [11]): 9.74%; Activity (DU-145 [21]): Dose-dependent effect; Activity (DU-145 [12]): 4.16%; Activity (DU-145 [13]): inactive; Activity (DU-145 [14]): 62.12%; Activity (DU-145 [15]): 6.53%; Activity (DU-145 [16]): 5%; Activity (DU-145 [17]): 11.78%; Activity (DU-145 [18]): 15.78%; Activity (DU-145 [19]): 18.23%; Activity (DU-145 [20]): 19.79%
Fc1cccc(Cl)c1-c1nc2ccccc2c2c1[nH]c1ccccc12	6.35 µM	71.1 µM	13.3 µM	14 µM	22.9 µM	inactive	

— ChEMBL document CHEMBL3421548, “PMA-SiO2 catalyzed synthesis of indolo[2,3-c]quinolines as potent anti cancer agents” (Bioorg Med Chem Lett, 2015)
